From patent US10004732B2 (Novartis AG, priority 2014, dated 2018) come the findings set out here.

pIC50: −log10 of the molar value. Where two headings read alike, the source gives them in different places.

Series [1] concerns the target T1, PI 3-kinase alpha (Homo sapiens, UniProt P42336). The experiment in a line: Kinase Glo Luminescent Kinase Assay (Kglo), assay A. To be noted: read-out: Assay A PI3Kα IC50. It counts as biochemical.
Target sequence in this assay (P42336 whole entry): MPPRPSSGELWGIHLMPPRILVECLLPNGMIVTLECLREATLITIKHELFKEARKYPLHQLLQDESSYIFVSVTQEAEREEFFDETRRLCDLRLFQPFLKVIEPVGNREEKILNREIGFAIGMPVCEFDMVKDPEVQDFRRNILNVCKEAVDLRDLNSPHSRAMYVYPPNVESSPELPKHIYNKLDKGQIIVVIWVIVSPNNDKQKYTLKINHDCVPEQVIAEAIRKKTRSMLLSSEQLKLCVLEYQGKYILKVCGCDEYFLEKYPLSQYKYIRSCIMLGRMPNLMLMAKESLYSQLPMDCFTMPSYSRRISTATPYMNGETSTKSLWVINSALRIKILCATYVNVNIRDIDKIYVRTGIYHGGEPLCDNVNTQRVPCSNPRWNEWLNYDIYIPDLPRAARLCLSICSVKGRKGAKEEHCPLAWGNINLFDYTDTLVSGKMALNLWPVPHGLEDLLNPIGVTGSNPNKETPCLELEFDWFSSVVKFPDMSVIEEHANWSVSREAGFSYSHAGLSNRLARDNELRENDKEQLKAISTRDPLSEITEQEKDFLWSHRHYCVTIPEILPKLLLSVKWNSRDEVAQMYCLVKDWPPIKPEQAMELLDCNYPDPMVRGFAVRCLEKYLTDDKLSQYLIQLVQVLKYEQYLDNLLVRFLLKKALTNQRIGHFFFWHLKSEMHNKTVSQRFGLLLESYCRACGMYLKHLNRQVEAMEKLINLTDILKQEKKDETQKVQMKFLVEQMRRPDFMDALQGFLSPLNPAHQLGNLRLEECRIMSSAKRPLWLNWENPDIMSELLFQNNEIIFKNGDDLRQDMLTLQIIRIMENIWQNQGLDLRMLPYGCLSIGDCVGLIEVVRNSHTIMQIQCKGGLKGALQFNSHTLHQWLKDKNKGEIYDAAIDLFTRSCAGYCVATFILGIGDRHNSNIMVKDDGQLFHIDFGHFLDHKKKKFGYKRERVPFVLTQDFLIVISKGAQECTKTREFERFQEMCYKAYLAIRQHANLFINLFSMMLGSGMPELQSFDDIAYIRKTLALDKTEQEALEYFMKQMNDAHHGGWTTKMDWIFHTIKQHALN
Protocol: Kinase Glo Luminescent Kinase Assay (Kglo) for Pb 3-Kinase Alpha (A), Pb 3-Kinase Beta (B), Vps34 (C), Pb 4-Kinase Beta (D)
The Kinase Glo Luminescent Kinase Assay (Promega, Madison/Wis., USA) is a homogeneous HTS method of measuring kinase activity by quantifying the amount of ATP remaining in solution following a kinase reaction.
L-α-phosphatidylinositol (PI), provided as 10 mg/ml solution in methanol, was transferred into a glass tube and dried under a nitrogen beam. It was then resuspended in 3% OctylGlucoside (1-0-n-octyl-beta-D-glucopyranoside) by vortexing and stored at 4° C. 5 μL of a mix of PI/OctylGlucoside with the PI 3-kinase alpha and PI 3-kinase beta subtypes, or Vps34 or PI 4-kinase beta were added. Kinase reactions were started by the addition of 5 μl of an ATP-mix containing in a final volume 10 μL 10 mM TRIS-HCl pH 7.5, 3 mM MgCl2, 50 mM NaCl, 0.05% CHAPS, 1 mM DTT and 1 μM ATP at room temperature.
All fits were performed with the program XLfit4 (ID Business Solutions, Guildford, UK).
Series [2] concerns the target T2, PI 3-kinase beta (Homo sapiens, UniProt P42338). Put plainly: Kinase Glo Luminescent Kinase Assay (Kglo), assay B. It counts as biochemical. To be noted: read-out: Assay B PI3Kβ IC50.
Target sequence in this assay (P42338 whole entry): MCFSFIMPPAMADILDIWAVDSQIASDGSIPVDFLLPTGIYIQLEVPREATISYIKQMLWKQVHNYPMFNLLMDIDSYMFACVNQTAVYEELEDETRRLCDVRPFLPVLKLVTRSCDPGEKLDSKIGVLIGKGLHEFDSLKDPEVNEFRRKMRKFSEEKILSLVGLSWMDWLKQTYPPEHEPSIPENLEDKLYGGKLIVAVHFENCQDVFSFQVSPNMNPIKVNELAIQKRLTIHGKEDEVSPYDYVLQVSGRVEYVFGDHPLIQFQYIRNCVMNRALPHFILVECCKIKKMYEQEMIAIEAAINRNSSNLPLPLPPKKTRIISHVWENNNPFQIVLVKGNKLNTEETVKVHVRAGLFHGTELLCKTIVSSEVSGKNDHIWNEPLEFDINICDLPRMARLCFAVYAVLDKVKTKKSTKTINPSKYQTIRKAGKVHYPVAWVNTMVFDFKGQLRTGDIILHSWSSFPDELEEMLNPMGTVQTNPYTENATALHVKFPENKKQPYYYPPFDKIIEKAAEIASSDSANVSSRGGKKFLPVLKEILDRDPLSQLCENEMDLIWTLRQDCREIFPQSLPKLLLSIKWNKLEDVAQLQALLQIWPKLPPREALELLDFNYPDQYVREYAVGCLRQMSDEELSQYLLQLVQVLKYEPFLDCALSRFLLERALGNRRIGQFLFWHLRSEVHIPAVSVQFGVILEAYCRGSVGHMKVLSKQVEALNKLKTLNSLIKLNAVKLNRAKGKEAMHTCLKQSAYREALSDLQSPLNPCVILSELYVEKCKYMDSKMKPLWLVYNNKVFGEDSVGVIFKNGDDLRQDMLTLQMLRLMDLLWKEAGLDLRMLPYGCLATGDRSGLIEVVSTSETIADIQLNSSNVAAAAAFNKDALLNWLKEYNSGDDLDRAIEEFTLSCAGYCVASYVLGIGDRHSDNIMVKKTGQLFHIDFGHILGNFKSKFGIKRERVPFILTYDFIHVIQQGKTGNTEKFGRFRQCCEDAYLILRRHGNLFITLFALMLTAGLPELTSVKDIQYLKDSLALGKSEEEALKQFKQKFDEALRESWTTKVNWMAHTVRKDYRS
Target sequence in this assay (P27986 461-568 partner): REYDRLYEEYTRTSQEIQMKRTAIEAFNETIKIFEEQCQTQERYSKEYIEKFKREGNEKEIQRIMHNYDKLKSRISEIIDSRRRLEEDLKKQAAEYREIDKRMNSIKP
The next series addresses Vps34 (Homo sapiens, UniProt Q8NEB9). The experiment in a line: Kinase Glo Luminescent Kinase Assay (Kglo), assay C. The note with it: read-out: Assay C VPS34 IC50. The series is classed as biochemical. (In general: Kinase-Glo measures the ATP left after a reaction by luminescence.)
A further series has as its target PI 4-kinase beta (Homo sapiens, UniProt Q9UBF8). Put plainly: Kinase Glo Luminescent Kinase Assay (Kglo), assay D. The series is classed as biochemical. The note with it: read-out: Assay D PI4Kβ IC50.
For series [3], the target named is T3, PI 3-kinase gamma (Homo sapiens, UniProt P48736). Put plainly: TR-FRET Adapta assay, assay E. To be noted: read-out: Assay E PI3Kγ IC50. The series is classed as biochemical. In general terms: TR-FRET usually uses a lanthanide donor and a delayed reading to cut background.
For a further series, the target named is mTOR (Homo sapiens, UniProt P42345). The experiment in a line: Lanthascreen kinase binding assay, assay G. The note with it: read-out: Assay G mTOR IC50.
In series [4] the target is T1, PI 3-kinase alpha. Put plainly: Cellular assay H1, p-Akt (S473) in Rat-1 cells, Surefire format. The series is classed as cell-based. To be noted: non-asterisked data: version H1 (Surefire format), Rat-1 cells; read-out: Assay H PI3Kα IC50.
Target sequence in this assay (P42336 whole entry): as the sequence (P42336 whole entry) above
Target sequence in this assay (Q63787 whole entry partner): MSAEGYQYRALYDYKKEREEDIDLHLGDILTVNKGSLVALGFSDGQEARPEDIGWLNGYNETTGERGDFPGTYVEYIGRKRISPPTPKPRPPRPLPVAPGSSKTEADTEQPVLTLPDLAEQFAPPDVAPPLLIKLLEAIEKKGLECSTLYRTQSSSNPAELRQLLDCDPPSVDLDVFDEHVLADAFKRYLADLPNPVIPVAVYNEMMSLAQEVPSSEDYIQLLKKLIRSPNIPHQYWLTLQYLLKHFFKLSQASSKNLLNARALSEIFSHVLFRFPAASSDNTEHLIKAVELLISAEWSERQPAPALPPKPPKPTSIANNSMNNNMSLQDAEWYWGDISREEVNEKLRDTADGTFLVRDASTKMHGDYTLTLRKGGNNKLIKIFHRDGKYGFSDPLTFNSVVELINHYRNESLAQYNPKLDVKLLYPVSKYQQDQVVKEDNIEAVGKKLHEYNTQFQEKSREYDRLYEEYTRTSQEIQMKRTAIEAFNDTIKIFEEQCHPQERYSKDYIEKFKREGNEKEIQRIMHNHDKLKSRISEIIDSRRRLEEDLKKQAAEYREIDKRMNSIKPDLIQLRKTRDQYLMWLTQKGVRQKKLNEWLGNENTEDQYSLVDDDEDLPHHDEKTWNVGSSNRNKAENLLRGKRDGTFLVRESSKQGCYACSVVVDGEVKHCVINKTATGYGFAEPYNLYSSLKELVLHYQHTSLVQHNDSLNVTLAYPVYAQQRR
Series [5] concerns the target T2, PI 3-kinase beta. The experiment in a line: Cellular assay I1, p-Akt (S473) in Rat-1 cells, Surefire format. To be noted: non-asterisked data: version I1 (Surefire format), Rat-1 cells; read-out: Assay I PI3Kβ IC50. It counts as cell-based.
Target sequence in this assay (P42338 whole entry): as the sequence (P42338 whole entry) above
Target sequence in this assay (Q63787 whole entry partner): as the sequence (Q63787 whole entry partner) above
Series [6] deals with T4, PI 3-kinase delta (Homo sapiens, UniProt O00329). The experiment in a line: Cellular assay J1, p-Akt (S473) in Rat-1 cells, Surefire format. The note with it: non-asterisked data: version J1 (Surefire format), Rat-1 cells; read-out: Assay J PI3Kδ IC50. It counts as cell-based.
Series [7] deals with T3, PI 3-kinase gamma. Put plainly: Cellular U937 AKT assay K1 (MSD). The series is classed as cell-based. To be noted: U937 cells, K1 format; read-out: Assay K1 PI3Kγ IC50.
For series [8], the system named is IL-8-induced neutrophil shape change in human whole blood. Put plainly: Whole blood neutrophil shape change assay (L). The series is classed as cell-based. The note with it: IL-8, human whole blood, read-out: Assay L WBSC IC50.
Series [9] deals with T4, PI 3-kinase delta. Put plainly: TR-FRET Adapta assay, assay F. To be noted: for pIC50: read-out: Assay F PI3Kδ IC50.
Series [10] can be described thus: Microsomal clearance assay (M). The note with it: intrinsic clearance in rat liver microsomes. (Microsomes from liver hold many membrane-bound enzymes, among them those of drug oxidation.)
Protocol: The experiments were performed in 96-well glass plates at 37° C. on an automated Tecan EVO platform. Test compounds at a concentration of 10 mM in pure DMSO were diluted 1:1000 in water to 10 μM. […] Reactions were initiated by the addition of 150 μL of a cofactor solution containing 2 mM NADPH.

PI 4-kinase beta, sequence (Q9UBF8 whole entry): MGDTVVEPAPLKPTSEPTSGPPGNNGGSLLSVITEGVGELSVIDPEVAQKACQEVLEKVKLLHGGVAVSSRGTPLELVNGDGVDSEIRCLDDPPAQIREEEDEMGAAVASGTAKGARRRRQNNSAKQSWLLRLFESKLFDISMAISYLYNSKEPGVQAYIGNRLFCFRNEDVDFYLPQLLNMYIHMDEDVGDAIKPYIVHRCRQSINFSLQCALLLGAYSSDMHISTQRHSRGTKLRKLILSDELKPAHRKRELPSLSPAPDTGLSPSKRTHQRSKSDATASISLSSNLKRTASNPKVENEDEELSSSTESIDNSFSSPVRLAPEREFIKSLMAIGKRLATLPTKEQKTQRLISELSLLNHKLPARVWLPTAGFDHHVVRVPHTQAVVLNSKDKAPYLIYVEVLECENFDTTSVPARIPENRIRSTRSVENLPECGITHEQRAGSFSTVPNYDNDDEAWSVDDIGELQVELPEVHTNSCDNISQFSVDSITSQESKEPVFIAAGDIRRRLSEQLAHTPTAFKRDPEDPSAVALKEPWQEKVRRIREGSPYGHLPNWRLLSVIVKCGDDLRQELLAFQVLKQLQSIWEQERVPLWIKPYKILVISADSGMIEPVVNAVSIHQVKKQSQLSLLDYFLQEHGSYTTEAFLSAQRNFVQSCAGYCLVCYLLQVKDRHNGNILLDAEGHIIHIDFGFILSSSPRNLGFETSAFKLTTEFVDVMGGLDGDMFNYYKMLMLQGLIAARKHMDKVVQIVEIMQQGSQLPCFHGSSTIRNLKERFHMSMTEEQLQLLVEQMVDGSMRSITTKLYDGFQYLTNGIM
Vps34, sequence (Q8NEB9 whole entry, species assumed): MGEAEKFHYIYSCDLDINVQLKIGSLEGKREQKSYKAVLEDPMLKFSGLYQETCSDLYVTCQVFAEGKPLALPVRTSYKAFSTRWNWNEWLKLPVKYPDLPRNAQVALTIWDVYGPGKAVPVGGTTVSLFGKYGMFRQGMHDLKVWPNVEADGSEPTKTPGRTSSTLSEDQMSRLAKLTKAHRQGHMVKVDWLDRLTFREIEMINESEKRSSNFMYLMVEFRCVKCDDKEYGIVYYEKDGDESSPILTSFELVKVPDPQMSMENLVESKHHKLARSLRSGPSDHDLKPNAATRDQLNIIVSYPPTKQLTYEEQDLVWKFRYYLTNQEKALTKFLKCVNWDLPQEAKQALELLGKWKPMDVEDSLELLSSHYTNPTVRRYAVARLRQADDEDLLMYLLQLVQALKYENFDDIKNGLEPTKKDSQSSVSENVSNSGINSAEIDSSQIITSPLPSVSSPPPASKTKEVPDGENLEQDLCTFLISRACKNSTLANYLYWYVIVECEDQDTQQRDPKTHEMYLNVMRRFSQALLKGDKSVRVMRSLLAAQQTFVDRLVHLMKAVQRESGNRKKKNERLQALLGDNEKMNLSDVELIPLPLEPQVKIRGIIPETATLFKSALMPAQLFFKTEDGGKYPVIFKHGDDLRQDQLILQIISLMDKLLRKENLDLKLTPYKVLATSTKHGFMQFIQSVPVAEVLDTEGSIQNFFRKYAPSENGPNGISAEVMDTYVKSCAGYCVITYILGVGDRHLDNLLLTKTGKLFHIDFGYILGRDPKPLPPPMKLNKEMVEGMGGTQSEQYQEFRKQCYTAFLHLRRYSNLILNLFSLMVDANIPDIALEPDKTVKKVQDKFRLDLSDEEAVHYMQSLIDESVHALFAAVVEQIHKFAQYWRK
Protocol for mTOR: Lanthascreen™ Kinase Binding Assay for mTOR (G)
Binding of an inhibitor to the kinase competes for binding with the tracer, resulting in a loss of FRET.
50 nL of compound dilutions were dispensed onto white 384-well small volume polystyrene plate.

A word on the pIC50: it is the IC50 on a negative log10 scale, so that one unit is a factor of ten. Turning to `Cc1cn(-c2nc(-c3cc(S(=O)(=O)NCCCO)ccc3C)cnc2N)cn1` [Example 57, 3-(5-Amino-6-(4-methyl-1H-imidazol-1-yl)pyrazin-2-yl)-N-(3-hydroxypropyl)-4-methylbenzenesulfonamide], the pIC50 is 6.49 at PI 3-kinase alpha [1]; 5.19 at PI 3-kinase beta [2]; less than 5.04 on Vps34; less than 5.04 on PI 4-kinase beta; 7.24 on PI 3-kinase gamma [3]; less than 5.04 at mTOR. The pIC50 is less than 5.00 on PI 3-kinase alpha [4]; less than 5.00 on PI 3-kinase beta [5]; less than 5.00 at PI 3-kinase delta [6]; 6.48 on PI 3-kinase gamma [7]; 5.90 in [8] (Homo sapiens, Neutrophil); 6.24 at PI 3-kinase delta [9]. The “Assay M RLM CI(int)” value in [10] worked out at 17 µL/min/mg.
For the compound `Cc1ccc(S(=O)(=O)NCCC(C)(C)O)cc1-c1cnc(N)c(-n2cncn2)n1` [Example 64, 3-(5-Amino-6-(1H-1,2,4-triazol-1-yl)pyrazin-2-yl)-N-(3-hydroxy-3-methylbutyl)-4-methylbenzenesulfonamide], the pIC50 on PI 3-kinase alpha [1] was 6.43; on PI 3-kinase beta [2], 5.41; on Vps34, 5.07; at PI 4-kinase beta, 5.18; on PI 3-kinase gamma [3], 7.34; on mTOR it was less than 5.04. The pIC50 is 5.91 at PI 3-kinase alpha [4]; 5.36 at PI 3-kinase beta [5]; 5.92 on PI 3-kinase delta [6]; 6.72 at PI 3-kinase gamma [7]; 6.27 in [8] (Homo sapiens, Neutrophil); 6.60 on PI 3-kinase delta [9]. Further, in [10], the “Assay M RLM CI(int)” value amounted to 61 µL/min/mg.
As to `Cc1ncn(-c2nc(-c3cc(S(=O)(=O)NCCC(C)(C)O)ccc3C)cnc2N)n1` [Example 65, 3-(5-Amino-6-(3-methyl-1H-1,2,4-triazol-1-yl)pyrazin-2-yl)-N-(3-hydroxy-3-methylbutyl)-4-methylbenzenesulfonamide], the pIC50 is 6.36 at PI 3-kinase alpha [1]; 5.39 on PI 3-kinase beta [2]; less than 5.04 at Vps34; less than 5.04 on PI 4-kinase beta; 7.66 on PI 3-kinase gamma [3]; less than 5.04 at mTOR. The pIC50 was 5.84 at PI 3-kinase alpha [4]; less than 5.00 on PI 3-kinase beta [5]; 5.84 at PI 3-kinase delta [6]; 6.81 at PI 3-kinase gamma [7]; 6.10 in series [8] (Homo sapiens, Neutrophil); 6.62 on PI 3-kinase delta [9]. Also, the “Assay M RLM CI(int)” value in [10] is 87 µL/min/mg.
`Cc1ccc(S(=O)(=O)NC2CC3(CC(O)C3)C2)cc1-c1cnc(N)c(-n2cncn2)n1` (stereo not shown) [Example 67, 3-(5-Amino-6-(1H-1,2,4-triazol-1-yl)pyrazin-2-yl)-N-(6-hydroxyspiro[3.3]heptan-2-yl)-4-methylbenzenesulfonamide]: the pIC50 on PI 3-kinase alpha [1] was 7.05; on PI 3-kinase beta [2] it was 6.07; at Vps34, 5.74; on PI 4-kinase beta, 5.13; on PI 3-kinase gamma [3], 8.52; at mTOR, 5.66. Further, the pIC50 is 5.88 at PI 3-kinase alpha [4]; 5.53 on PI 3-kinase beta [5]; 6.04 on PI 3-kinase delta [6]; 7.17 at PI 3-kinase gamma [7]; 6.60 in series [8] (Homo sapiens, Neutrophil); 6.80 at PI 3-kinase delta [9]. In addition, in [10], the “Assay M RLM CI(int)” value is 36 µL/min/mg.
Broadly, the IC50 is the concentration needed to halve the response being measured. A high value points to a need for much substance. For the compound `Cc1ccc(S(=O)(=O)N[C@H]2CC[C@](C)(O)CC2)cc1-c1cnc(N)c(-n2cncn2)n1` [Example 69a, 3-(5-amino-6-(1H-1,2,4-triazol-1-yl)pyrazin-2-yl)-N-((1r,4r)-4-hydroxy-4-methylcyclohexyl)-4-methylbenzenesulfonamide], the pIC50 on PI 3-kinase alpha [1] is 6.41; on PI 3-kinase beta [2], 5.46; on Vps34 it was less than 5.00; on PI 4-kinase beta, less than 5.00; on PI 3-kinase gamma [3] it was 7.42; at mTOR, 5.04. Further, the pIC50 is 5.48 at PI 3-kinase alpha [4]; 5.35 on PI 3-kinase beta [5]; 5.58 on PI 3-kinase delta [6]; 6.99 at PI 3-kinase gamma [7]; 5.94 in series [8] (Homo sapiens, Neutrophil). Besides, the IC50 against PI 3-kinase delta [9] (Assay F PI3Kδ IC50 (μM)) came to 0.53 µM. Moreover, the “Assay M RLM CI(int)” value in [10] is 49 µL/min/mg.
For `Cc1ccc(S(=O)(=O)N[C@H]2CC[C@@](C)(O)CC2)cc1-c1cnc(N)c(-n2cncn2)n1` [Example 69b, 3-(5-amino-6-(1H-1,2,4-triazol-1-yl)pyrazin-2-yl)-N-(cis-4-hydroxy-4-methylcyclohexyl)-4-methylbenzenesulfonamide], the pIC50 was 6.41 at PI 3-kinase alpha [1]; 5.85 on PI 3-kinase beta [2]; less than 5.00 on Vps34; less than 5.00 on PI 4-kinase beta; 7.24 at PI 3-kinase gamma [3]; 5.02 at mTOR. The negative-log IC50 (pIC50) at PI 3-kinase alpha [4] was 5.18; on PI 3-kinase beta [5] it was 5.07; on PI 3-kinase delta [6] it was 5.29; at PI 3-kinase gamma [7] it was 6.87; in [8] it was 5.71; on PI 3-kinase delta [9], 6.16. For the same compound, in series [10], the “Assay M RLM CI(int)” value was determined as 227 µL/min/mg.
Take `Cc1ccc(S(=O)(=O)NC[C@H]2C[C@@H](O)C2)cc1-c1cnc(N)c(-n2cncn2)n1` [Example 72, 3-(5-Amino-6-(1H-1,2,4-triazol-1-yl)pyrazin-2-yl)-N-(((1s,3s)-3-hydroxycyclobutyl)methyl)-4-methylbenzenesulfonamide]: the pIC50 was 6.24 at PI 3-kinase alpha [1]; 5.57 on PI 3-kinase beta [2]; less than 5.04 at Vps34; less than 5.04 on PI 4-kinase beta; 7.47 on PI 3-kinase gamma [3]; less than 5.04 at mTOR. Moreover, the pIC50 was 5.51 at PI 3-kinase alpha [4]; 5.22 at PI 3-kinase beta [5]; 5.58 on PI 3-kinase delta [6]; 6.53 on PI 3-kinase gamma [7]; 6.14 in series [8] (Homo sapiens, Neutrophil); 6.41 at PI 3-kinase delta [9]. The “Assay M RLM CI(int)” value in series [10] came to 41 µL/min/mg.
In the case of `Cc1ccc(S(=O)(=O)NCC(C)(C)CO)cc1-c1cnc(N)c(-n2cncn2)n1` [Example 73, 3-(5-Amino-6-(1H-1,2,4-triazol-1-yl)pyrazin-2-yl)-N-(3-hydroxy-2,2-dimethylpropyl)-4-methylbenzenesulfonamide], the pIC50 at PI 3-kinase alpha [1] is 6.46; on PI 3-kinase beta [2], 5.74; at Vps34, less than 5.04; on PI 4-kinase beta, less than 5.04; on PI 3-kinase gamma [3] it was 7.82; on mTOR it was less than 5.04. Moreover, the pIC50 is 5.65 at PI 3-kinase alpha [4]; 5.27 on PI 3-kinase beta [5]; 5.70 on PI 3-kinase delta [6]; 6.75 at PI 3-kinase gamma [7]; 6.10 in series [8] (Homo sapiens, Neutrophil); 6.41 on PI 3-kinase delta [9]. Also, the “Assay M RLM CI(int)” value in series [10] was found to be 64 µL/min/mg.
As to `Cc1ccc(S(=O)(=O)N[C@H]2CC[C@H](O)CC2)cc1-c1cnc(N)c(-n2cccn2)n1` [Example 103, 3-(5-Amino-6-(1H-pyrazol-1-yl)pyrazin-2-yl)-N-((1r,4r)-4-hydroxycyclohexyl)-4-methylbenzenesulfonamide], the pIC50 on PI 3-kinase alpha [1] is 6.41; at PI 3-kinase beta [2] it was 5.73; on Vps34, less than 5.04; at PI 4-kinase beta, 5.56; at PI 3-kinase gamma [3] it was 7.89; at mTOR, less than 5.04. For the same compound, the pIC50 was 5.65 on PI 3-kinase alpha [4]; 5.49 at PI 3-kinase beta [5]; 6.07 on PI 3-kinase delta [6]; 7.55 at PI 3-kinase gamma [7]; 6.29 in series [8] (Homo sapiens, Neutrophil); 6.82 at PI 3-kinase delta [9]. Further, the “Assay M RLM CI(int)” value in series [10] is 29 µL/min/mg.
In the case of `Cc1cnn(-c2nc(-c3cc(S(=O)(=O)N[C@H]4CC[C@H](O)CC4)ccc3C)cnc2N)c1` [Example 111, 3-(5-Amino-6-(4-methyl-1H-pyrazol-1-yl)pyrazin-2-yl)-N-((1r,4r)-4-hydroxycyclohexyl)-4-methylbenzenesulfonamide], the pIC50 was 6.74 at PI 3-kinase alpha [1]; 5.70 at PI 3-kinase beta [2]; less than 5.04 at Vps34; 5.71 on PI 4-kinase beta; 7.74 on PI 3-kinase gamma [3]; less than 5.04 on mTOR. Besides, the pIC50 is 5.83 on PI 3-kinase alpha [4]; less than 5.00 on PI 3-kinase beta [5]; 6.34 on PI 3-kinase delta [6]; 7.70 at PI 3-kinase gamma [7]; 6.20 in [8] (Homo sapiens, Neutrophil); 7.22 on PI 3-kinase delta [9]. For the same compound, in [10], the “Assay M RLM CI(int)” value is 74 µL/min/mg.
